The test system of series [1] is Trypanosoma cruzi (Tulahuen trypomastigotes expressing β-galactosidase, in L6 cells). Nature of the series: In vitro T. cruzi assay for determination of IC50. Format: cell-based. The conditions noted are these: Trypanosoma cruzi, TULAHUEN, L6; 96 h incubation. The protocol: The T. cruzi assay uses Tulahuen trypomastigotes expressing the β-galactosidase gene. The parasites were maintained in vitro by serial passage in L6 cells. […] Extracellular trypomastigotes were then removed and NCL compounds were added in seven-point serial dilutions performed in triplicate. Benznidazole (Epichem Pty Ltd.) was included as a control. […] After 4-6 h, a colour change following catabolisation of the reagent by viable T. cruzi was observed and absorbance was read at 530 nm using a Dynex microplate reader. […] For each compound, % inhibition values were used to generate a standard curve from which the IC50 was calculated. Each assay was performed at least twice, and the average was used.

Series [2] is described as follows: Microsomal stability, mouse. Format: in vitro ADME. The following applies: mouse liver microsomes. Here is the method:
(§1) Incubation methods: The metabolic stability assay was performed by incubating each test compound (at 1 μM) with human and mouse liver microsomes (Xenotech, Lot#1210057 and 1310211, respectively) at 37° C. and 0.4 mg/mL protein concentration. The metabolic reaction was initiated by the addition of an NADPH-regenerating system (i.e. NADPH is the cofactor required for CYP450-mediated metabolism) and quenched at various time points over a 60 minute incubation period by the addition of acetonitrile containing diazepam as internal standard. Control samples (containing no NADPH) were included (and quenched at 2, 30 and 60 minutes) to monitor for potential degradation in the absence of cofactor. Analytical conditions: Instrument: Waters Micromass Xevo G2 QTOF coupled to a Waters Acquity UPLC; Detection: Positive electrospray ionisation under MSE mode; Cone Voltage 30 V; Column: Ascentis Express Amide column (50×2.1 mm, 2.7 μm); LC conditions: Gradient cycle time: 4 minutes; Injection volume: 5 μL; Flow rate: 0.4 mL/min; Mobile phase: Acetonitrile-water gradient with 0.05% formic acid Metabolite; Identification: A metabolite screen was not included in this study, however, since data was acquired using MSE mode, which allows for the simultaneous acquisition of low and high collision energy MS spectra, a post-hoc metabolite search may be conducted at a later date if warranted. […]
(Liver microsomes are a subcellular fraction often used to study metabolism.)

The test system of series [3] is Leishmania donovani promastigotes. Briefly: L. donovani screening (Alamarblue). Format: cell-based. The conditions noted are these: for L. donovani SI: GI50 of macrophages divided by IC50 of parasites; for inhibition at 10 µM: 96 hrs, read-out: reduction of metabolic activity / inhibition of L. donovani. Here is the method:
L. donovani Screening. Procyclic promastigotes from exponentially growing cultures maintained in DME-L+ Bob additions were used for all assays. Compounds were initially screened for activity at 10 μM. Compounds were diluted in culture media to a […] in 96 well plates. Promastigotes were diluted to a density of ˜8×10^5 cells/ml then added to the assay plate resulting in a final cell density of 4×10^5 cells/ml. in 96 well plates. Cells were incubated for 96 hrs at 27° C. before the addition of Alamarblue (thermofisher). Fluorescence was read at excitation 530 nm and Emission 590 nm. […] Compounds were serially diluted in thirds, in a 96 well plate, in cell growth media so that concentrations ranged from 0.005 to 10 μM and promastigotes added to a final concentration of 1×10^6 cells/ml. Cells were incubated at 27° C. for 72 hours before the addition of alamar blue. Fluorescence was measured as above.
Background: Resazurin is reduced to fluorescent resorufin, in cell work by metabolically active cells.

Series [4] in a line: Cell toxicity assay (WST-1). Format: cell-based, mouse. The following applies: mouse, RAW 264.7 macrophages, RAW 264.7, 24 hours, read-out: GI50 macrophage. The protocol: Cell toxicity assays. Mouse macrophages (RAW 264.7) were grown in RPM11640 media supplemented with L-glutamine and 10% foetal calf serum. Cells were trypsanised when 80% confluent and subcultured every 3-4 days. For cytotoxicity assays cells were diluted to a final cell concentration of 2×10^4 cells/ml and 198 μl added to each well of a 96 well plate. Cells were incubated in a humidified incubator for 2 hours at 37° C. 5% CO2 before the addition of NCL compounds (2 μl/well, previously diluted in DMSO). Campothecin, triton X and DMSO only were used as controls. Cells were exposed to the compounds for 24 hours. The metabolic activity of the cells was determined using the WST-1 assay system (Roche Life Science). The supernatant was removed, 100 μl of PBS with 10% WST-1 was added to each well and incubated for 1 hr before reading absorbance at 450 nm. The selectivity index of the compounds was determined by dividing the IC50 of macrophages by the IC50 against parasites. IC50 was determined via graphpad prism software.

Series [5] can be described thus: Microsomal stability, human. Format: in vitro ADME. The following applies: human liver microsomes. The protocol:
as §1

The subject of another series is sheep erythrocytes. Briefly: Erythrocyte haemolysis assay. Format: cell-based. The conditions noted are these: compared to NCL812 and NCL062. The protocol: Whole sheep blood was obtained from Thermofisher scientific. The red blood cells were separated from other blood components via centrifugation at 1500 g for 10 minutes and washed with saline 3 times. Erythrocytes were diluted to a concentration of ˜1×10^10 cells/ml in saline. 50 μl of NCL compounds diluted in DMSO (see below) were added to 1.5 ml Eppendorf tubes and 500 μl of diluted red blood cells were added to each tube. Erythrocytes were incubated with compounds for 30 minutes at 37° C. with gentle shaking (75 rpm). After incubation cells were placed on ice for 5 minutes then centrifuged at 1500 rpm for 10 minutes to pellet cells. The supernatant was removed and serially diluted in saline. Absorbance of the supernatant and dilutions were recorded at 550 nm. Sample lysis was compared relative to cells lysed 100% in distilled water and analysed using GraphPad Prism v6 software.

Series [6] relates to Giardia duodenalis (strain WB trophozoites). Nature of the series: Giardia adherence assay. Format: cell-based. The conditions noted are these: NCL099 at 11, 38 and 128 μg/ml compared to the control. Here is the method:
Giardia strain WB was grown until confluent (grown and maintained in TYI-S-33 medium with 10% foetal bovine serum). For the assay, media of a confluent culture was replaced with fresh TYI-S-33 medium. Cultures were then cold shocked (on ice) for 40 minutes to detach trophozoites. The cell density of the cultures was adjusted to 1×10^6 cells/ml and 1 ml was added to each well of a 24 well plate already containing 1 ml of diluted compounds (see below). […] After incubation the coverslips were removed, air-dried and stained with Diff-Quik (a Romanowski stain variant). Coverslips were mounted onto glass slides using polymount. Images at 10× magnification were taken at 5 random locations per coverslip. […] Stock solutions of compounds were prepared in DMSO at 25.6 mg/ml. Compounds were diluted 1:100 in TYI-S-33 medium. A 1:2 serial dilution was then performed in TYI-S-33 medium in 24 well plates.

Series [7] in a line: Release from Formulation B (Franz diffusion cells). Format: physicochemical. The conditions noted are these: absolute ethanol receptor, 32° C., up to 24 hours. The protocol: Franz diffusion cells were utilized to quantify the release rate of NCL 812 and NCL099 from its topical formulations. Five milliliters of absolute ethanol, which was chosen as the desired release medium, was loaded into the receptor chamber. Temperature of the receptor fluid was kept constant, at 32±1° C. using a water jacket. Acetyl cellulose membranes, with pore size of 0.45 μm (Pall Corporation) was selected and placed between donor and receptor chamber. Followed by that, a number of test samples (Formulation B) was loaded into the donor chamber. One milliliter of receptor fluid was collected at regular time intervals of 0.25, 0.50, 0.75, 1, 2, 3, 4, 5, 6, 7, 8 and 24 hours through the sampling port. One milliliter of fresh absolute ethanol was immediately returned to the receptor chamber. UV-HPLC was utilized to analyse the content of the receptor fluids attained.

The subject of series [8] is Giardia WB (Giardia duodenalis). Briefly: Resazurin Reduction Assay (Example 9). Format: cell-based. The protocol: Giardia trophozoites were grown until confluent. The media was replaced with fresh media and cold shocked for 40 minutes. Compounds were prepared in DMSO and serially diluted 2-fold in DMSO starting at with a 1/100 dilution of the stock (e.g. 128 mg/ml stock starting dilution would be […]). 2 μl of dilutions were added to the appropriate wells and 198 ul of TYI-S-33 media added to each well. Cells were diluted to a concentration of ˜500 000 cells/ml and 100 μl were added to each well of the assay plate (except media only control). The assay was incubated in an anaerobic environment (candle jar) for 5 hours at 37° C. The media was removed and replaced with 100 μl of warm PBS then Alamarblue™ added to a concentration of 10%. The samples were incubated in an anaerobic environment until colour development. After incubation, the absorbance of each sample was read at 570 and 630 nm. The percent reduction of resazurin (Alamarblue™) was calculated (using the formula below) and data was analysed with GraphPad Prism v6 software. The formula used to calculate percent reduction of Alamarblue was ((Eoxi630×A570)−(Eoxi570×A630))/((Ered570×C630)−(Ered×C570))×100, Where: Eoxi630=34798, Eoxi570=80586, A570=absorbance at 570 nm, A630=absorbance at 630 nm, Ered570=155677, Ered630=5494, C630=absorbance of negative control well at 630 nm and C570=absorbance of negative control well at 570 nm.

The next series has as its system S. aureus ATCC 29213. Briefly: S. aureus MIC. Format: cell-based. The conditions noted are these: MIC after 24 hours.
The test system of a further series is T. cruzi infection. The conditions noted are these: cited from earlier work.

Each structure is given as a SMILES string. “And” between values parts separate entries of the source, which are not always exact repeats. Identical values can stand only once. A value given as a limit tells only on which side of the number the result lay.

Take `COc1ccccc1/C=N/NC(=N)N/N=C/c1ccccc1OC.Cl` [NCL028]: the IC50 in series [1] is 13 µM; in [3] (72 hours) it was 0.29 ± 0.05 µM; in [3] (Leishmania donovani, 72 h), 0.37 µM. The rate of degradation result in series [2] is given as “high (high (0.7-0.95))”; in series [5] it was “low (low (<0.3))”. In addition, the “L. donovani SI” value in series [3] is “highly selective”; in series [3] (listed as NCL 028), 27.9. In [3] (Leishmania donovani), the inhibition at 10 µM was 100%. The GI50 at 24 h in series [4] turned out to be 8.1 ± 2.76 µM.

Turning to `CC(C)(C)c1ccc(/C=N/NC(=N)N/N=C/c2ccc(C(C)(C)C)cc2)cc1.Cl` [NCL099], the IC50 in [3] (Leishmania donovani, 72 h) stood at 0.37 ± 0.04 µM. The inhibition at 10 µM in [3] (Leishmania donovani) turned out to be 100%. Also, the GI50 at 24 h in [4] amounted to 7.66 ± 0.56 µM. Besides, in the series on sheep erythrocytes, the “selectivity for bacterial and protozoal cells than mammalian cells” value is on record as “greater selectivity”. Besides, the “number of adherent cells” value in series [6] was “significant decrease”. In addition, the “release profile from Formulation B” value in series [7] was “acceptable release profile”.

Take `C/C(=N\NC(=N)N/N=C(\C)c1ccc(C(C)(C)C)cc1)c1ccc(C(C)(C)C)cc1.Cl` [NCL219]: the “L. donovani SI” value in [3] is “highly selective”; in series [3] (listed as NCL 219), 24.08. Besides, the IC50 in series [3] (Leishmania donovani, 72 h) was 0.8 ± 0.1 µM; in [8] (Giardia, 5 h) it was 1.03 µM and 0.4 µg/mL. In addition, the inhibition at 10 µM in series [3] (Leishmania donovani) amounted to 100%. For the same compound, in series [4], the GI50 at 24 h is 19.3 ± 3.77 µM. In the series with S. aureus ATCC 29213 (Staphylococcus aureus, ATCC29213), the minimal inhibitory concentration (MIC) is above 100 µg/mL.

As to `NC(N)=N/N=C(\CC1CCCCC1)c1ccc(Cl)cc1O` [NCL237], the “Giardia WB IC50” value in [8] (IC50 after 5 hours) is reported as 22.8^ ug/ml. Besides, the “S. aureus ATCC 29213 MIC” value in the series on S. aureus ATCC 29213 came to 4.8 µg/mL.

In the case of `O=C(Cn1ccnc1[N+](=O)[O-])NCc1ccccc1` [benznidazole], the cure rate result with T. cruzi infection (children with chronic T. cruzi infection, negative serology 3 to 4 years after treatment) was “around 60%”.

Consider `CC1CS(=O)(=O)CCN1/N=C/c1ccc([N+](=O)[O-])o1` (centres unmarked) [nifurtimox], for which the “patients with gastrointestinal side effects” value in the series on T. cruzi infection (anorexia, weight loss, nausea, vomiting) was “up to 70%”.

The term IC50 denotes the concentration needed to halve the response being measured. The low end stands for greater potency in that assay, the high end for weaker potency in that assay. What is called GI50 is the concentration at which growth is held to half of that of the control. For orientation: MIC means the lowest concentration that inhibits growth of the organism.
